The text below walks through data of ChEMBL document CHEMBL5260832, “Hepatoprotective natural triterpenoids” (Eur J Med Chem, 2018).

Series [1] in a line: Hepatotoxicity in DMF-induced ICR mouse model assessed as change in SOD level, po measured after 7 days. The class given is toxicity, organism-based. Conditions: in vivo, 168 h, time 7 day.
Series [2] in a line: Hepatotoxicity in CCl4-induced ICR mouse model assessed as change in CAT level, po measured after 7 days. The class given is toxicity, organism-based. Conditions: in vivo, 168 h, time 7 day.
Series [3] is described as follows: Hepatotoxicity in DMF-induced ICR mouse model assessed as change in CAT level, po measured after 7 days. The class given is toxicity, organism-based. The note with it: in vivo, 168 h, time 7 day.
The nature of series [4]: Hepatotoxicity in CCl4-induced ICR mouse model assessed as change in GSH-PX level, po measured after 7 days. The class given is toxicity, organism-based. Conditions: in vivo, 168 h, time 7 day.
Series [5] can be described thus: Hepatotoxicity in CCl4-induced ICR mouse model assessed as change in SOD level, po measured after 7 days. The class given is toxicity, organism-based. Conditions: in vivo, 168 h, time 7 day.
Series [6] can be described thus: Hepatotoxicity in DMF-induced ICR mouse model assessed as change in GSH-PX level, po measured after 7 days. The class given is toxicity, organism-based. Conditions: in vivo, 168 h, time 7 day.
In series [7] the test system is Huh-7. The series is described as follows: Protection against CCl4-induced cell damage in human Huh-7 cells assessed as reduction in ALT level at […] (reference value: 40.2 U/ml). The class given is functional. Also noted: dose or concentration left out as unconfirmed.
The test system of series [8] is Huh-7. The series can be described thus: Hepatoprotective activity against CCL4-induced mouse model in human Huh-7 cells assessed as decrease in ALT level at 100 ug/mL. Conditions: dose 100.0 µg/ml. The class given is functional.
Series [9] has as its system Mus musculus. The series is described as follows: Hepatoprotective activity against CCl4-induced liver injury mouse model assessed as reduction in ALT at 20 ug/mL, ip relative to control (reference value: 13.23 IU/L). The class given is functional. The note with it: dose 20.0 µg/ml.
Series [10] relates to Mus musculus. The series is described as follows: Hepatoprotective activity against CCl4-induced liver injury mouse model assessed as reduction in MDA level at 20 ug/mL, ip relative to control (reference value: 9.27 IU/L). The class given is functional. The note with it: dose 20.0 µg/ml.
Series [11] deals with Mus musculus. The series can be described thus: Hepatoprotective activity against D-GaIN/LPS induced liver injury mouse model assessed as reduction in AST at 100 mg/kg, ip relative to control. The class given is functional. Also noted: scale not given: the % may be the effect or the level left.
Series [12] relates to Mus musculus. The series can be described thus: Hepatoprotective activity against CCl4-induced liver injury mouse model assessed as reduction in AST at 20 ug/mL, ip relative to control (reference value: 9.27 IU/L). The class given is functional. Conditions: dose 20.0 µg/ml.
For series [13], the system named is Mus musculus. The series can be described thus: Hepatoprotective activity against CCl4-induced liver injury mouse model assessed as increase in SOD level at 20 ug/mL, ip relative to control (reference value: 5.89 IU/L). The class given is functional. Conditions: dose 20.0 µg/ml.
Series [14] concerns Hepatocyte. The series can be described thus: Hepatoprotective activity against CCL4-induced rat hepatocyte toxicity assessed as decrease in GPT level at 3.33 mg/mL preincubated for 30 mins followed by CCL4 addition and measured after 180 mins by colorimetric method. The class given is functional. The note with it: time 210.0 min.
The test system of series [15] is Mus musculus. The series can be described thus: Hepatoprotective activity against D-GaIN/LPS induced liver injury mouse model assessed as reduction in ALT at 100 mg/kg, ip relative to control. Also noted: scale not given: the % may be the effect or the level left. The class given is functional.
Series [16] concerns Mus musculus. The series is described as follows: Hepatoprotective activity against D-GaIN/LPS induced liver injury mouse model assessed as reduction in LDH level at 100 mg/kg, ip relative to control. The class given is functional. Also noted: scale not given: the % may be the effect or the level left.
Series [17] has as its system Hepatocyte. The series is described as follows: Hepatoprotective activity against CCL4-induced rat hepatocyte toxicity assessed as decrease in ALP level at 3.33 mg/mL preincubated for 30 mins followed by CCL4 addition and measured after 180 mins by colorimetric method. The class given is functional. The note with it: time 210.0 min.
Series [18] concerns Hepatocyte. The series is described as follows: Hepatoprotective activity against CCL4-induced rat hepatocyte toxicity assessed as decrease in GOT level at 3.33 mg/mL preincubated for 30 mins followed by CCL4 addition and measured after 180 mins by colorimetric method. Conditions: time 210.0 min. The class given is functional.
Series [19] concerns HepG2. The series can be described thus: Hepatoprotective activity against H2O2-induced human HepG2 cells assessed as increase in ALT level. The class given is functional.
In series [20] the test system is HepG2. The series is described as follows: Hepatoprotective activity against H2O2-induced human HepG2 cells assessed as increase in AST level at 25.55 uM. The class given is functional.
A short description of series [21]: Hepatotoxicity in D-GaIN induced Wistar rat assessed as change in GTP leakage level for 10 days relative to control. The class given is toxicity. The note with it: in vivo, 240 h, time 10 day.
Series [22] in a line: Hepatotoxicity in acetaminophen-induced Wistar rat assessed as reduction in liver damage by measuring histological score at 50 to 100 mg/kg (reference value: 4.83). The class given is toxicity, organism-based. The note with it: in vivo, dose 50-100 mg/kg.
Series [23] can be described thus: Hepatotoxicity in D-GaIN induced Wistar rat assessed as change in induction of TAT level for 10 days relative to control. Conditions: in vivo, 240 h, time 10 day. The class given is toxicity. Also noted: concentration or dose not given beside the values.
Series [24] is filed under the species Mus musculus. The series can be described thus: Hepatoprotective activity against D-galactosamine-induced liver injury mouse model assessed as […] leakage at 50 ug/ml. The class given is functional. The note with it: dose 50 µg/ml.
The species entered for series [25] is Mus musculus. The series can be described thus: Protection against D-GaIN/TNFalpha induced cell death in mouse liver parenchymal cells assessed as reduction in GPT level measured after 2 hrs. The class given is functional, cell-based.
The species named for series [26] is Mus musculus. The series can be described thus: Hepatoprotective activity in mouse liver homogenate assessed as inhibition of iron/ascorbate lipid peroxidation at 0.1 mg/mL relative to control. The class given is functional. More on the design: scale not given: the % may be the effect or the level left.
The species entered for series [27] is Mus musculus. The series can be described thus: Hepatoprotective activity in mouse liver homogenate assessed as inhibition of iron/ascorbate lipid peroxidation at 5.0 mg/mL relative to control. The class given is functional. Also noted: scale not given: the % may be the effect or the level left.
The species named for series [28] is Mus musculus. The series is described as follows: Hepatoprotective activity in CCl4-induced mouse assessed as change in SGPT level (reference value: 6.9 mmol/L). The class given is functional.

pIC50: −log10 of the molar value.

Turning to `C[C@@H]1O[C@@H](O[C@H]2[C@H](OC(=O)[C@]34CCC(C)(C)C[C@H]3C3=CC[C@@H]5[C@@]6(C(=O)O)CC[C@H](O)[C@@](C)(C(=O)O)[C@@H]6CC[C@@]5(C)[C@]3(C)CC4)O[C@H](C)[C@H](O)[C@@H]2O)[C@H](O)[C@H](O)[C@H]1O[C@@H]1O[C@H](CO)[C@@H](O[C@@H]2OC[C@@H](O)[C@H](O)[C@H]2O[C@@H]2OC[C@H](O)[C@H](O)[C@H]2O)[C@H](O)[C@H]1O`, the Activity in series [1] amounted to 198.16 U/mg; in series [2], 87.1 U/mg; in series [3] it was 84.68 U/mg; in series [4], 69.12 U/mg; in series [5] it was 221.03 U/mg; in [6], 59.91 U/mg.
Take `C[C@@H]1O[C@@H](O[C@H]2[C@H](OC(=O)[C@]34CCC(C)(C)C[C@H]3C3=CC[C@@H]5[C@@]6(C(=O)O)CC[C@H](O)[C@@](C)(C(=O)O)[C@@H]6CC[C@@]5(C)[C@]3(C)CC4)O[C@H](C)[C@H](O)[C@@H]2O)[C@H](O)[C@H](O)[C@H]1O[C@@H]1O[C@H](CO)[C@@H](O[C@@H]2OC[C@@H](O)[C@H](O)[C@H]2O)[C@H](O)[C@H]1O`: the Activity in series [1] turned out to be 196.16 U/mg; in series [2], 85.63 U/mg; in [3] it was 81.85 U/mg; in series [4], 67.77 U/mg; in [5], 193.68 U/mg; in series [6], 59.57 U/mg.
On to `C[C@@H]1CC[C@]2(C(=O)O[C@@H]3O[C@H](CO)[C@@H](O)[C@H](O)[C@H]3O)CC[C@]3(C)C(=CC[C@@H]4[C@@]5(C)C[C@H](O)[C@H](O)C(C)(C)[C@@H]5CC[C@]43C)[C@@H]2[C@]1(C)O`, for which the Activity with Huh-7 [7] was 15.4 U/ml.
Regarding SILYMARIN, the Activity with Huh-7 [8] was found to be 10.2 U/ml; with Mus musculus [9], 4.82 U/ml; in the series on Mus musculus [10], 3.84 nmol/mL; with Mus musculus [11], 66%; in the series with Mus musculus [12], 4.24 IU/L; with Mus musculus [13], 21.7 U/ml. Further, the Activity in the series on Hepatocyte [14] amounted to 11.3 IU/L; in the series on Mus musculus [15] it was 68%; with Mus musculus [16] it was 43%; in the series on Hepatocyte [17] it was 13.7 IU/L; with Hepatocyte [18], 18.5 IU/L.
Turning to `CC(=O)[C@H]1CC(=O)[C@@]2(C)C3=C(C(=O)C[C@]12C)[C@@]1(C)CCC(=O)C(C)(C)[C@@H]1CC3=O`, the results for the Activity in the series on HepG2 [19] and in the series with HepG2 [20] were 21.42 U/L and 26.83 U/L, respectively.
For `CC1(C)CC[C@]2(C)CC[C@]3(C)C(=CC[C@@H]4[C@@]5(C)CC[C@H](O)C(C)(C)[C@@H]5CC[C@]43C)[C@@H]2C1` [beta-AMYRIN], the Activity in [21] stood at 49.4%; in [22], 2.17; in series [23], 40%; in the series filed under Mus musculus [24], 17.3%.
Take `CC(=O)OC[C@H]1O[C@@H](O[C@H]2C[C@]3(C)[C@H](C[C@@H](O)[C@@H]4[C@@H]([C@]5(C)CC[C@@H](C(C)(C)O)O5)CC[C@]43C)[C@@]3(C)CC[C@H](O)C(C)(C)[C@H]23)[C@H](O[C@@H]2O[C@@H](C)[C@H](O)[C@@H](O)[C@H]2O)[C@@H](O)[C@@H]1O`: the pIC50 (commonly the IC50 on a negative log10 scale, so that one unit is a factor of ten) in the series filed under Mus musculus [25] was 4.33.
`CC1(C)CC[C@]2(C)CC[C@]3(C)C(=CC[C@@H]4[C@@]5(C)CC[C@@H](O)C(C)(C)[C@@H]5CC[C@]43C)[C@@H]2C1`: the Activity in [21] is 5.3%; in series [23] it was 70.2%; in the series listed under Mus musculus [24], 60.8%.
As for `CC1(C)CC[C@]2(C(=O)O)CC[C@]3(C)C(=CC[C@@H]4[C@@]5(C)CC[C@H](O)C(C)(C)[C@@H]5CC[C@]43C)[C@@H]2C1` [OLEANOLIC_ACID], the Activity in the series listed under Mus musculus [26] is 13.7%; in the series filed under Mus musculus [27], 38.8%; in the series filed under Mus musculus [28], 3.64 mmol/L.
